We go through one compound from patent US12227521B2, “CGRP antagonist compounds” (Nxera Pharma UK Limited, priority 2019, dated 2025).

The target of this test is T1, human CGRP receptor (Homo sapiens, UniProt O60894+Q16602).
T1 construct: SK-N-MC endogenously expressing the human CGRP receptor; endogenous in cells; host or cells: SK-N-MC human neuroblastoma cells
As to the kind of experiment: cAMP functional assay (HTRF cAMP dynamic-2) in SK-N-MC cells. It counts as cell-based. Conditions: SK-N-MC cells endogenously expressing human CGRP receptor; challenge with EC80 human CGRP (0.3 nM); functional pKb converted from pIC50 by modified Cheng-Prussoff equation. The protocol:
cAMP production following receptor activation was determined using the Homogeneous Time-Resolved Fluorescence (HTRF) cAMP dynamic-2 assay (Cisbio, France). The human neuroblastoma cell line SK-N-MC endogenously expressing the human CGRP receptor was seeded at a density of 12,500 cells/well in solid walled 96 well half area plates (Costar, Catalog Number 3688, Corning Life Sciences, Germany). After 16 h incubation at 37° C. media was removed and cells were incubated at 37° C. for 30 min in serum free media containing 500 μM IBMX (Tocris, Abingdon, UK, Catalog Number 2845) and increasing concentrations of test antagonist. Following this cells were challenged with an EC80 concentration of human CGRP (0.3 nM) for a further 30 m at 37°) and then cAMP production was determined as manufacturer's instructions before plates were read on a PheraStar fluorescence plate reader (BMG LabTech, Germany). IC50 values were derived from the inhibition curve. The pIC50 values (where pIC50=−log10 IC50) were converted to a functional pKb value using a modified Cheng-Prussoff equation where Kd=agonist EC50 and L hot=agonist challenge concentration. The pKb values of certain compounds of the invention are detailed in Table 5.

T1 sequence (Q16602 23-461): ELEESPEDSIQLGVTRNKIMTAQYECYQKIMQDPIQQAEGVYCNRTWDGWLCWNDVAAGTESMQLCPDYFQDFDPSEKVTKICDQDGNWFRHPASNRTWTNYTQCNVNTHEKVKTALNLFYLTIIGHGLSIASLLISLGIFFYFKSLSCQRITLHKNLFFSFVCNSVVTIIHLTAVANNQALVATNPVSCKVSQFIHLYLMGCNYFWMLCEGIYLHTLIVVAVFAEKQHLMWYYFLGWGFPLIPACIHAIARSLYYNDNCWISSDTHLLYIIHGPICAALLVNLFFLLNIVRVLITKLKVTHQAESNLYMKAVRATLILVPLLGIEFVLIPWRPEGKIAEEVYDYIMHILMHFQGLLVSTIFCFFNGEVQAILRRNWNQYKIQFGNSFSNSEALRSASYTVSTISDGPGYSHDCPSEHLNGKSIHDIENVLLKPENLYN
T1 sequence (O60894 27-148): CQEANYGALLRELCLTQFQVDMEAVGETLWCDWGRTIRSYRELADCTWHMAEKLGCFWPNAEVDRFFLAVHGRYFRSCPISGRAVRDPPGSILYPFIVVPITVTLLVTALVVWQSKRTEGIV

On to `C[C@@H]1[C@H](c2c(F)ccc(F)c2F)C[C@@H]2NC(=O)c3cnc4c(c3)C[C@@]3(C4)C(=O)Nc4ncc(cc43)/C=C/COCCOCCN1C2=O` (single isomer, unassigned) [1-1 Isomer 1], for which the Kb is 6.31 pM.
